Assay results taken from patent publication US20100009405A1, “Biosynthetic process for the preparation of gallidermin” (priority 2005, published 2010).
Converted amounts (≈) assume the structure as drawn. Ends that are not written are not given here.

Assays:
[1] = tested on: S. gallinarum (pGV5); assay: Minimum inhibitory concentration of kanamycin used for selection; assay type: cell-based, Staphylococcus gallinarum; conditions: B-medium
Experimental: FIG. 4 is a schematic representation of the strategy employed for the selection of gdmP knock-out strains. Cm: chloramphenicol; Kan: kanamycin; MIC: minimum inhibitory concentration; R: resistance; S: sensitivity;
A first S. gallinarum (pGV5) culture was started inoculating 10 ml kanamycin-supplemented ([…]) B-medium with a single colony of a transformed cell. Culture was incubated shaking with 225 rpm at 30° C., a temperature that allowed pGV5 to replicate as free plasmid (permissive temperature), until late stationary phase (16h). With this culture, new cultures were inoculated (1:100) and incubated shaking with 225 rpm at 30° C. into the late stationary phase (16 h). […] This step was repeated once, before diluting the cultures 1:100 into 100 ml B-medium containing no antibiotic. Growth at 40° C. was extended for another 24 hours.

[2] = tested on: sensitive test strain; assay: Test-disc bioassay of antibacterial activity of gallidermin preparations; assay type: cell-based; conditions: dilutions of stock solutions on test discs, same concentrations
Experimental: FIGS. 12A and B show the result of the proteolytic (trypsin) conversion of pregallidermins into gallidermin. […] Dilutions for a stock solution of either compound were applied onto test discs and incubated in the presence of a sensitive test strain. […] Pre-gallidermins (1.09 g/l) were incubated with trypsin (0.2 g/l) 1 h, RT, pH 6.5,
Of all proteases examined, only trypsin appeared to be suitable for a commercial and industrialised process. […] We have disclosed the feasibility to selectively cleave pre-gallidermins into mature gallidermin using serine-type proteases and trypsin in particular. While we have employed soluble enzyme preparations, alternatives, such as immobilized enzyme preparations, could be used instead. This would facilitate the repetitive use of such enzymes and avoid possible contaminations of the final product by trypsin, even though, trypsin is generally regarded as safe (GRAS).

Row | Compound | MIC value [1] [µg/mL] | bioactivity compared with gallidermin isolated from the wild-type strain [2]
1 | NC[C@H]1O[C@H](O[C@H]2[C@H](O)[C@@H](O[C@H]3O[C@H](CO)[C@@H](O)[C@H](N)[C@H]3O)[C@H](N)C[C@@H]2N)[C@H](O)[C@@H](O)[C@@H]1O [kanamycin] | 7500 (≈ 15.5 mM) | –
2 | gallidermin [in-situ activated gallidermin] (IASKFLCTPGCAKTGSFNSYCC; also: lantibiotic with dehydroamino residues and thioether bridges, places not given here, in-situ activated form; UniProt P21838 31-52, looked up) | – | same bioactivity
